This passage reports inhibition results from EP4745138A1, “THIO-GLUTARIMIDO ISOINDOLINONE DERIVATIVE, BIFUNCTIONAL PROTEIN DEGRADER CONTAINING SAME, AND USES THEREOF” (Gluetacs Therapeutics (Shanghai) Co., Ltd., priority 2023, dated 2025).

In general, inhibition refers to the percentage by which the read-out fell short of the control.

Each structure is given as a SMILES string.

In the test the target is T1, human Cereblon WT GST-tagged protein (Homo sapiens, UniProt Q96SW2).
T1 construct: purchased CISBIO 64BDCRBNPEH
T1 sequence (Q96SW2 whole entry): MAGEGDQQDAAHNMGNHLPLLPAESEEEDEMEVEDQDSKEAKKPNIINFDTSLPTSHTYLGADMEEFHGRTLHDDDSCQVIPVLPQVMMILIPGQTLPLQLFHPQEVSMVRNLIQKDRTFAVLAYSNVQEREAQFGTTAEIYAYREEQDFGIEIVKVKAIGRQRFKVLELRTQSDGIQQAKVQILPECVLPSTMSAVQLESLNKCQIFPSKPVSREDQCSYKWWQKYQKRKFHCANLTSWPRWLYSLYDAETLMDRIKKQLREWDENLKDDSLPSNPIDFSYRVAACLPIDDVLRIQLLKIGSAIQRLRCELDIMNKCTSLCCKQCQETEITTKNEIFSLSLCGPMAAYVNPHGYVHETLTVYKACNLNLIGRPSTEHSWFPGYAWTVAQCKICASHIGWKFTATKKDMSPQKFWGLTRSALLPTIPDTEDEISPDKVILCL
The test is described as follows: CRBN-binding affinity, HTRF (CEREBLON BINDING kit). Particulars: for inhibition at 0.5 µM: read-out: Inhibition Rate at 0.5 µM (%); for inhibition at 2 µM: read-out: Inhibition Rate at 2 µM (%). From the text: The CEREBLON BINDING kits (specification: 10,000 tests; product number: Catalog # 64BDCRBNPEH; CISBIO company) was used to determine the CRBN binding ability of the compounds to be tested through a HTRF method (homogeneous time-resolved fluorescence). The specific methods are as follows: • 1. […] Specifically, diluent #9 (1X) solution was used as the diluent, and multiple concentration gradients were set. […] Into the 96-well plate, the diluted test compounds and corresponding detection reagents were added, resulting in final test compound concentrations of 2 µM and 0.5 µM, respectively. […] Then, 2.5 µL of human Cereblon WT GST-tagged protein solution was added to each well. Finally, 5 µL of the thoroughly mixed Thalidomide-Re reagent and GST Eu antibody working solution were added to each of the aforementioned wells. […] The blank control wells were sequentially added with 2.5 µL of diluent #9 (1X) solution, 2.5 µL of PROTAC binding buffer, and 5 µL of thoroughly mixed Thalidomide-Re reagent and GST Eu antibody working solution. • 4.
(Time-resolved FRET reads energy transfer from a long-lived donor to a nearby acceptor.)

As for `Nc1ncnc2c1c(-c1ccc(Oc3ccccc3)cc1)nn2C1CCN(Cc2cccc3c2CN(C2CCC(=O)NC2=O)C3=S)CC1` (stereo not drawn) [GT-05074, 3-(4-((4-(4-amino-3-(4-phenoxyphenyl)-1H-pyrazolo[3,4-d]pyrimidin-1-yl)piperidin-1-yl)methyl)-1-thioxoisoindolin-2-yl)piperidine-2,6-dione], the inhibition at 0.5 µM fell in the range of 40 to 53% and the inhibition at 2 µM lay within 60 to 80%.
In the same order, the values of `COC1CCN(c2nccc(Nc3cc4c(cn3)c(N3CCN(Cc5cccc6c5CN(C5CCC(=O)NC5=O)C6=S)CC3)nn4C(C)C)n2)CC1` (stereo not drawn) [GT-08759, 3-(4-((4-(1-isopropyl-6-((2-(4-methoxypiperidin-1-yl)pyrimidin-4-yl)amino)-1H-pyrazolo[4,3-c]pyridin-3-yl)piperazin-1-yl)methyl)-1-thioxoisoindolin-2-yl)piperidine-2,6-dione] are 30 to 40% and 60 to 80%.
Turning to `CC1(C)CCC(c2ccc(Cl)cc2)=C(CN2CCN(c3ccc(C(=O)NS(=O)(=O)c4ccc(N[C@H](CCN5CC6CCC(C5)N6Cc5ccc6c(c5)CN(C5CCC(=O)NC5=O)C6=S)CSc5ccccc5)c(S(=O)(=O)C(F)(F)F)c4)cc3)CC2)C1` (stereo partly drawn) [GT-09416, 4-(4-((4'-chloro-4,4-dimethyl-3,4,5,6-tetrahydro-[1,1'-biphenyl]-2-yl)methyl)piperazin-1-yl)-N-((4-(((2R)-4-(8-((2-(2,6-dioxopiperidin-3-yl)-1-thioxoisoindolin-5-yl)methyl)-3,8-diazabicyclo[3.2.1]octan-3-yl)-1-(phenylthio)butan-2-yl)amino)-3-((trifluoromethyl)sulfonyl)phenyl)sulfonyl)benzamide], the inhibition at 0.5 µM was 80 to 100% and the inhibition at 2 µM lay in the range of 80 to 100%.
On to `COc1cc(N2CCC(N3CCN(Cc4cccc5c4CN(C4CCC(=O)NC4=O)C5=S)CC3)CC2)c(C)cc1Nc1ncc(Br)c(Nc2ccc3nccnc3c2P(C)(C)=O)n1` (stereo not drawn) [GT-05058, 3-(4-((4-(1-(4-((5-bromo-4-((5-(dimethylphosphoryl)quinoxalin-6-yl)amino)pyrimidin-2-yl)amino)-5-methoxy-2-methylphenyl)piperidin-4-yl)piperazin-1-yl)methyl)-1-thioxoisoindolin-2-yl)piperidine-2,6-dione], for which the inhibition at 0.5 µM is 40 to 53% and the inhibition at 2 µM lay in the range of 80 to 100%.
In the case of `Nc1nc(Nc2ccc(S(=O)(=O)N3CCN(Cc4ccc5c(c4)C(=S)N(C4CCC(=O)NC4=O)C5)CC3)cc2)nn1C(=O)c1c(F)cccc1F` (stereo not drawn) [GT-08796, 3-(6-((4-((4-((5-amino-1-(2,6-difluorobenzoyl)-1H-1,2,4-triazol-3-yl)amino)phenyl)sulfonyl)piperazin-1-yl)methyl)-1-thioxoisoindolin-2-yl)piperidine-2,6-dione], the inhibition at 0.5 µM fell in the range of 80 to 100% and the inhibition at 2 µM is 80 to 100%.
Turning to `Nc1nnc(-c2cc(F)ccc2O)cc1N1CC2CCC(C1)N2Cc1ccc2c(c1)C(=S)N(C1CCC(=O)NC1=O)C2` (stereo not drawn) [GT-08791, 3-(6-((3-(3-amino-6-(5-fluoro-2-hydroxyphenyl)pyridazin-4-yl)-3,8-diazabicyclo[3.2.1]octan-8-yl)methyl)-1-thioxoisoindolin-2-yl)piperidine-2,6-dione], the inhibition at 0.5 µM fell in the range of 40 to 53% and the inhibition at 2 µM was in the range of 80 to 100%.
`CCc1cc2c(cc1N1CCN(Cc3ccc4c(c3)CN(C3CCC(=O)NC3=O)C4=S)CC1)C(C)(C)c1[nH]c3cc(C#N)ccc3c1C2=O` (stereo not drawn) [GT-09424, 8-(4-((2-(2,6-dioxopiperidin-3-yl)-1-thioxoisoindolin-5-yl)methyl)piperazin-1-yl)-9-ethyl-6,6-dimethyl-11-oxo-6,11-dihydro-5H-benzo[b]carbazole-3-carbonitrile]: the inhibition at 0.5 µM is 40 to 53% and the inhibition at 2 µM was in the range of 60 to 80%.
In the case of `Nc1nc(Nc2ccc(S(=O)(=O)N3CCN(Cc4cccc5c4CN(C4CCC(=O)NC4=O)C5=S)CC3)cc2)nn1C(=O)c1c(F)cccc1F` (stereo not drawn) [GT-08795, 3-(4-((4-((4-((5-amino-1-(2,6-difluorobenzoyl)-1H-1,2,4-triazol-3-yl)amino)phenyl)sulfony 1)piperazin-1-yl)methyl)-1-thioxoisoindolin-2-yl)piperidine-2,6-dione], the inhibition at 0.5 µM was 53 to 60% and the inhibition at 2 µM is 60 to 80%.
In the case of `CCN(c1cc(-c2ccc(N3CCN(Cc4ccc5c(c4)CN(C4CCC(=O)NC4=O)C5=S)CC3)cc2)cc(C(=O)NCc2c(C)cc(C)[nH]c2=O)c1C)C1CCOCC1` (stereo not drawn) [GT-08887, N-((4,6-dimethyl-2-oxo-1,2-dihydropyridin-3-yl)methyl)-4'-(4-((2-(2,6-dioxopiperidin-3-yl)-1-thioxoisoindolin-5-yl)methyl)piperazin-1-yl)-5-(ethyl(tetrahydro-2H-pyran-4-yl)amino)-4-methyl-[1,1-biphenyl]-3-carboxamide], the inhibition at 0.5 µM lay within 60 to 80% and the inhibition at 2 µM lay within 80 to 100%.
Consider `Cc1cc(S(=O)(=O)N2CCN(Cc3ccc4c(c3)C(=S)N(C3CCC(=O)NC3=O)C4)CC2)ccc1Nc1ncc(Br)c(Nc2cccc(F)c2C(N)=O)n1` (stereo not drawn) [GT-08794, 2-((5-bromo-2-((4-((4-((2-(2,6-dioxopiperidin-3-yl)-3-thioxoisoindolin-5-yl)methyl)piperazin-1-yl)sulfonyl)-2-methylphenyl)amino)pyrimidin-4-yl)amino)-6-fluorobenzamide], for which the inhibition at 0.5 µM was in the range of 53 to 60% and the inhibition at 2 µM was in the range of 60 to 80%.
In the same order, the values of `Nc1nnc(-c2cc(F)ccc2O)cc1N1CCN(Cc2ccc3c(c2)CN(C2CCC(=O)NC2=O)C3=S)CC1` (stereo not drawn) [GT-08712, 3-(5-((4-(3-amino-6-(5-fluoro-2-hydroxyphenyl)pyridazin-4-yl)piperazin-1-yl)methyl)-1-thioxoisoindolin-2-yl)piperidine-2,6-dione] are 60 to 80% and 80 to 100%.
As for `CCN(c1cc(-c2ccc(CN3CCN(Cc4ccc5c(c4)CN(C4CCC(=O)NC4=O)C5=S)CC3)cc2)cc(C(=O)NCc2c(C)cc(C)[nH]c2=O)c1C)C1CCOCC1` (stereo not drawn) [GT-08886, N-((4,6-dimethyl-2-oxo-1,2-dihydropyridin-3-yl)methyl)-4'-((4-((2-(2,6-dioxopiperidin-3-yl)-1-thioxoisoindolin-5-yl)methyl)piperazin-1-yl)methyl)-5-(ethyl(tetrahydro-2H-pyran-4-yl)amino)-4-methyl-[1,1-biphenyl]-3-carboxamide], the inhibition at 0.5 µM lay in the range of 53 to 60% and the inhibition at 2 µM was in the range of 80 to 100%.
For `N#CC1(CNc2nc(-c3cc(NC4CCN(Cc5ccc6c(c5)C(=S)N(C5CCC(=O)NC5=O)C6)CC4)ncc3Cl)cs2)CCOCC1` (stereo not drawn) [GT-08750, 4-(((4-(5-chloro-2-((1-((2-(2,6-dioxopiperidin-3-yl)-3-thioxoisoindolin-5-yl)methyl)piperidin-4-yl)amino)pyridin-4-yl)thiazol-2-yl)amino)methyl)tetrahy dro-2H-pyran-4-carbonitrile] the same measures were 60 to 80% and 80 to 100%.
With `O=C1CCC(N2Cc3cc(CN4CCN(c5ncc(C(=O)Nc6ccc(OC(F)(F)Cl)cc6)cc5-c5cc[nH]n5)CC4)ccc3C2=S)C(=O)N1` (stereo not drawn) [GT-08769, N-(4-(chlorodifluoromethoxy)phenyl)-6-(4-((2-(2,6-dioxopiperidin-3-yl)-1-thioxoisoindolin-5-yl)methyl)piperazin-1-yl)-5-(1H-pyrazol-3-yl)nicotinamide], the inhibition at 0.5 µM was in the range of 53 to 60% and the inhibition at 2 µM fell in the range of 80 to 100%.
Turning to `Nc1nnc(-c2cc(F)ccc2O)cc1N1CC2CCC(C1)N2Cc1ccc2c(c1)CN(C1CCC(=O)NC1=O)C2=S` (stereo not drawn) [GT-08713, 3-(5-((3-(3-amino-6-(5-fluoro-2-hydroxyphenyl)pyridazin-4-yl)-3,8-diazabicyclo[3.2.1]octan-8-yl)methyl)-1-thioxoisoindolin-2-yl)piperidine-2,6-dione], the inhibition at 0.5 µM is 40 to 53% and the inhibition at 2 µM was in the range of 80 to 100%.
For `CCCc1cc(C)[nH]c(=O)c1CNC(=O)c1cc(-c2ccc(N3CCN(Cc4ccc5c(c4)CN(C4CCC(=O)NC4=O)C5=S)CC3)nc2)cc2c1cnn2C(C)C` (stereo not drawn) [GT-08885, 6-(6-(4-((2-(2,6-dioxopiperidin-3-yl)-1-thioxoisoindolin-5-yl)methyl)piperazin-1-yl)pyridin-3-yl)-1-isopropyl-N-((6-methyl-2-oxo-4-propyl-1,2-dihydropyridin-3-yl)methyl)-1H-indazole-4-carboxamide] the same measures were 40 to 53% and 60 to 80%.
Take `CC(C)(O)c1cc2nc(C3CCN(Cc4ccc5c(c4)CN(C4CCC(=O)NC4=O)C5=S)CC3)oc2cc1NC(=O)c1cccc(C(F)(F)F)n1` (stereo not drawn) [GT-05320, N-(2-(1-((2-(2,6-dioxopiperidin-3-yl)-1-thioxoisoindolin-5-yl)methyl)piperidin-4-yl)-5-(2-hydroxypropan-2-yl)benzo[d]oxazol-6-yl)-6-(trifluoromethyl)picolinamide]: the inhibition at 0.5 µM was in the range of 80 to 100% and the inhibition at 2 µM fell in the range of 80 to 100%.
With `Nc1nnc(-c2cc(F)ccc2O)cc1N1CCN(Cc2cccc3c2CN(C2CCC(=O)NC2=O)C3=S)CC1` (stereo not drawn) [GT-08788, 3-(4-((4-(3-amino-6-(5-fluoro-2-hydroxyphenyl)pyridazin-4-yl)piperazin-1-yl)methyl)-1-thioxoisoindolin-2-yl)piperidine-2,6-dione], the inhibition at 0.5 µM lay in the range of 40 to 53% and the inhibition at 2 µM lay in the range of 80 to 100%.
